For data set [1], the system named is B16 cells. Nature of the data set: Cell proliferation MTT assay. In kind it is cell-based, mouse. Particulars: B16 cells in vitro, 48 h. On the procedure:
(§1) Cell proliferation was measured by MTT assay as previously described. The cells were seeded in a volume of 200 μL/well in 96-well plates. The next day, cells were treated with DMSO or a series of concentrations of KTC1101. After a 48-h incubation period, 20 μL of MTT (5 mg/mL) was added to each well. After further incubation for 4 h at 37 °C, the absorbance at 490 nm was measured using an iMark microplate reader (BIO-RAD, Hercules, CA, USA).
(In general: Formazan colour is commonly taken as a measure of viable cells.)

Data set [2] has as its system S24 cells. Nature of the data set: Cell proliferation MTT assay. In kind it is cell-based, mouse. Particulars: 48 h. On the procedure: as §1
Data set [3] in a line: Drug concentration measurement in tumors. In kind it is in vivo, mouse. The settings on record: B16 tumors, continuous dosing. On the procedure: To evaluate the intratumoral concentration of KTC1101, the B16 murine cancer model was established by subcutaneously implanting 2.5 × 10^5 B16 cells into the right lateral flank of C57BL/6 mice. The mouse model was utilized for experiments when tumor volumes reached approximately 100 mm^3. The B16 tumor-bearing C57BL/6 mice were divided into groups, with each group comprising three mice. They were treated with KTC1101 at doses of either 50 or 100 mg/kg (PO). The mice were sacrificed, and tumors were collected on days 1, 5, and 7 post-treatment. Approximately 50 mg of each tumor was homogenized in 1 mL of methanol, followed by centrifugation at 12,000 rpm at 4 °C for 10 min. The concentration of KTC1101 in the supernatant was quantified using LC–MS.

Data set [4] has as its system immune cell populations in B16 tumors. Nature of the data set: Flow cytometry of tumor-infiltrating immune cells. Particulars: intermittent dosing. In kind it is in vivo, mouse. On the procedure:
To obtain single-cell suspensions for analysis by flow cytometry, tumors were excised, minced, and dissociated in Deoxyribonuclease/collagenase/hyaluronidase buffer (0.1 mg/mL Deoxyribonuclease I, 0.2 mg/mL Collagenase IV and 0.2 mg/mL Hyaluronidase) for 60 min at 37 °C with agitation, and strained through a 70 μm strainer for downstream applications. Tissue was dissociated as described above to obtain single-cell suspensions. Cells were stained with antibodies for 30 min at 4 °C, and then fixed and intracellularly stained using Foxp3/ Transcription Factor Staining Buffer Set (eBioscience) according to the manufacturer’s instructions. Antibodies used in this study can be found in Supplementary Table 2. The stained cells were acquired on a BD C6 Flow Cytometer using BD AccuriTM C6 Software (BD Biosciences) and the data were processed using FlowJo software.
(In general: A flow cytometer gives signals particle by particle.)

Data set [5] can be described thus: Liver microsome metabolic stability assay. Particulars: mouse, liver microsomes. For orientation: Liver microsomes are vesicles of endoplasmic reticulum, rich in cytochrome P450 enzymes.
Data set [6] is described as follows: Plasma metabolic stability assay. In kind it is in vitro ADME. Particulars: mouse plasma, 37°C, 120 min incubation. On the procedure:
495 µL of plasma was placed in a 96-well plate and pre-incubated at 37°C for 5 min.

Data set [7] deals with CD4^+ T cells. Put plainly: T cell suppression assay (CFSE). It is filed as cell-based. The settings on record: Mus musculus, 72 h, read-out: IC50 proliferation. On the procedure:
(§2) Spleens from naive mice were isolated and ground through 70-μm filters to generate a single-cell suspension. After RBC lysis, single-cell suspensions were stained with CD3, CD8, CD4, CD25 or CD127 antibodies. Viable CD8^+ T cells (CD3^+CD8^+), CD4^+ T cells (CD3^+CD4^+), and Tregs (CD3^+CD4^+CD25^+CD127^low/−) from single-cell suspensions were sorted by FACS. Then T cells were labelled with […] in pre-warmed PBS for 10 min at 37 °C. The CFSE-labelled T cells were seeded in 96-well plates pre-coated with 10 μg/mL CD3 and 1 μg/mL CD28 antibodies and cultured in 1640 media with 10% FBS, 1 mM Sodium Pyruvate (Thermo, 11,360,070), 50 μM β-ME and 100 IU/mL IL2, as well as different concentrations of KTC1101 or solvent control. After 72 h, cells were harvested and the CFSE signal was measured by flow cytometry. Cell growth rate was calculated by the percentage of live, proliferated cell number at each drug concentration vs. solvent control.

Data set [8] relates to CD8^+ T cells. Nature of the data set: T cell suppression assay (CFSE). In kind it is cell-based. Particulars: Mus musculus, 72 h, read-out: IC50 proliferation. On the procedure: as §2
Data set [9] has as its system Tregs. Nature of the data set: T cell suppression assay (CFSE). It is filed as cell-based, mouse. On the procedure: as §2
The subject of data set [10] is MKN1. Nature of the data set: JFCR39 sulforhodamine B growth assay. In kind it is cell-based. The settings on record: Homo sapiens, MKN-1; MKN1, 48 h. On the procedure: (§3) JFCR39 drug discovery system was used to measure the growth inhibitory activities and identify the target of KTC1101. The JFCR39 panel consists of 39 cell lines seeded in 96-well plates. After 48-h treatment with KTC1101, cell growth was measured using the sulforhodamine B assay. […] The deviation of log GI50 for each cell line from the average log GI50 across the JFCR39 panel was plotted as a fingerprint. MG-MID (mean of Log GI50 values) represents the average log GI50 for all 39 cell lines. The most sensitive and least sensitive cell lines were identified by calculating the difference in their log GI50 values (Range) and the difference between the most sensitive cell line and the average GI50 on the JFCR39 panel (Delta). The fingerprint of KTC1101 was compared with the fingerprints of reference compounds in the database. The Pearson correlation coefficient (r) was calculated (n = 39).

The subject of data set [11] is NCI-H226. Put plainly: JFCR39 sulforhodamine B growth assay. In kind it is cell-based. The settings on record: Homo sapiens, NCI-H226, 48 h. On the procedure:
as §3

In data set [12] the test system is SF-539. Put plainly: JFCR39 sulforhodamine B growth assay. It is filed as cell-based. The settings on record: Homo sapiens, SF-539, 48 h. On the procedure: as §3
In data set [13] the test system is HBC-5. Nature of the data set: JFCR39 sulforhodamine B growth assay. It is filed as cell-based. Particulars: Homo sapiens, HBC5; HBC-5, 48 h. On the procedure: as §3
The test system of data set [14] is OVCAR-3. Put plainly: JFCR39 sulforhodamine B growth assay. Particulars: Homo sapiens, OVCAR-3, 48 h. It is filed as cell-based. On the procedure:
as §3

Data set [15] concerns St-4. Put plainly: JFCR39 sulforhodamine B growth assay. In kind it is cell-based. Particulars: Homo sapiens, St-4, 48 h. On the procedure:
as §3

Data set [16] concerns OVCAR-8. Put plainly: JFCR39 sulforhodamine B growth assay. In kind it is cell-based. Particulars: Homo sapiens, OVCAR-8, 48 h. On the procedure: as §3
Data set [17] has as its system KM-12. Nature of the data set: JFCR39 sulforhodamine B growth assay. In kind it is cell-based. The settings on record: Homo sapiens, KM12; KM-12, 48 h. On the procedure: as §3
Data set [18] relates to MKN-B. Put plainly: JFCR39 sulforhodamine B growth assay. In kind it is cell-based. The settings on record: Homo sapiens, 48 h. On the procedure: as §3
The subject of data set [19] is MKN-A. Put plainly: JFCR39 sulforhodamine B growth assay. The settings on record: Homo sapiens, 48 h. It is filed as cell-based. On the procedure:
as §3

For data set [20], the system named is HCC2998. Put plainly: JFCR39 sulforhodamine B growth assay. It is filed as cell-based. Particulars: Homo sapiens, HCC 2998; HCC2998, 48 h. On the procedure: as §3
In data set [21] the test system is NCI-H522. Nature of the data set: JFCR39 sulforhodamine B growth assay. In kind it is cell-based. The settings on record: Homo sapiens, NCI-H522, 48 h. On the procedure:
as §3

pIC50: −log10 of the molar value.

Consider `COc1cc(N)cc2c1nc(C(F)F)n2-c1nc(N2CCCOCC2)nc(N2CCOCC2)n1` [KTC1101, 2-(difluoromethyl)-4-methoxy-1-(4-morpholino-6-(1,4-oxazepan-4-yl)-1,3,5-triazin-2-yl)-1H-benzo[d]imidazol-6-amine], for which the anti-proliferative activity result in data set [1] is recorded as “strong anti-proliferative activity”. In addition, the sensitivity in vitro result in data set [2] is reported as “showed sensitivity”. The intratumoral drug concentration entry in data set [3] is listed as “accumulation of the drug in continuous dosing”. Further, the “intratumoral T cell populations (FACS)” value in data set [4] is “increase in intratumoral CD8^+ T, CD4^+ T, and a reduction of Treg cells”. Also, the results for the half-life at 1 µM in data set [5] and in data set [6] were 40.7 min and > 120 min, respectively. Besides, the microsomal CLint (usually the capacity of the preparation to metabolise the compound, expressed as a volume cleared per time) at 1 µM in data set [5] is 34 µL/min/mg. The pIC50 in data set [7] is 7.79; in [8] it was 7.50; in data set [9] (Mus musculus, T-cell, 72 h, read-out: IC50 proliferation), 8.59. Also, the “selective inhibition of Treg proliferation over CD8^+ T cells” value in [9] was “over a tenfold greater extent than CD8^+ T cells”. Also, the GI50 (as a rule, the concentration at which growth is held to half of that of the control) in data set [10] is 10 nM; in data set [11] it was 16.6 nM; in data set [12], 10 nM; in [13], 14.5 nM; in data set [14], 15.8 nM; in [15], 105 nM. Moreover, the GI50 is 30.9 nM in data set [16]; 178 nM in [17]; 28.8 nM in data set [18]; 145 nM in [19]; 36.3 nM in data set [20]; 10 nM in data set [21].

The values are drawn from PMC10938783, “A novel pan-PI3K inhibitor KTC1101 synergizes with anti-PD-1 therapy by targeting tumor suppression and immune activation” (Molecular Cancer, 2024).
